Results taken from patent US8278345B2, “Inhibitors of glutaminyl cyclase” (Probiodrug AG, priority 2006, dated 2012).

target: hQC (Homo sapiens, UniProt Q16769); test: Inhibitor assay for glutaminyl cyclase activity (fluorometric, H-Gln-βNA / H-Gln-AMC); assay type: biochemical; conditions: compound from preparative synthesis, purified; read-out: IC50 hQC
Outline: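 Ki values came from fitting progress curves to a competitive inhibition model; rapid screens used 4 mM inhibitor with substrate at KM. QC activity was read at 30 °C via auxiliary pyroglutamyl aminopeptidase releasing βNA (0.2 mM H-Gln-βNA, 0.2 M Tris pH 8.0, 20 mM EDTA) or AMC (0.05 M Tris pH 8.0, 5 mM EDTA).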

Sequence of hQC (Q16769 29-361): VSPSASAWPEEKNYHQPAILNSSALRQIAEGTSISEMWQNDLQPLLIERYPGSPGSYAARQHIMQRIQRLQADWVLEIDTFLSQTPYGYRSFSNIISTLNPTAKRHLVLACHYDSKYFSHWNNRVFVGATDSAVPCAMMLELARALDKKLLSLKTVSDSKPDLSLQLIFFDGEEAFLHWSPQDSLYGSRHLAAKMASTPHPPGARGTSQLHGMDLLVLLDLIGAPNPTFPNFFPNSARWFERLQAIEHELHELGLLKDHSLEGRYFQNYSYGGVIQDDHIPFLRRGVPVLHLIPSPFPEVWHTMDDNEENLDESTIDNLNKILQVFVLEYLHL

Row | SMILES | IC50
1 | O=C1C(O)=C(c2c[nH]c3ccccc23)C(c2cccc(Cl)c2)N1CCCn1ccnc1 (stereo not shown) [Compound 143, 5-(3-Chloro-phenyl)-3-hydroxy-1-(3-imidazol-1-yl-propyl)-4-(1H-indol-3-yl)-1,5-dihydro-pyrrol-2-one] | 134 nM
2 | CCCCCC1=C(O)C(=O)N(CCCn2ccnc2)C1c1cccs1 (stereo not shown) [Compound 210, 3-Hydroxy-1-(3-imidazol-1-yl-propyl)-4-pentyl-5-thiophen-2-yl-1,5-dihydro-pyrrol-2-one] | 588 nM
3 | CCCCCC1=C(O)C(=O)N(CCCn2ccnc2)C1c1ccc(C)o1 (stereo not shown) [Compound 191, 3-Hydroxy-1-(3-imidazol-1-yl-propyl)-5-(5-methyl-furan-2-yl)-4-pentyl-1,5-dihydro-pyrrol-2-one] | 1750 nM

same assay, conditions: read-out: IC50

Row | SMILES | IC50
4 | O=C1C(O)=C(c2ccccc2)C(c2ccc(N3CCCC3)cc2)N1c1ccc2[nH]cnc2c1 (stereo not shown) [Compound 309, 1-(1H-Benzoimidazol-5-yl)-3-hydroxy-4-phenyl-5-(4-pyrrolidin-1-yl-phenyl)-1,5-dihydro-pyrrol-2-one] | 6880 nM
5 | CCCC1C(CC)=C(O)C(=O)N1CCCn1ccnc1 (stereo not shown) [Compound 223, 4-Ethyl-3-hydroxy-1-(3-imidazol-1-yl-propyl)-5-propyl-1,5-dihydro-pyrrol-2-one] | 2200 nM
6 | O=C1C(O)=C(c2c[nH]c3ccccc23)C(Cc2ccccc2)N1CCCn1ccnc1 (stereo not shown) [Compound 134, 5-Benzyl-3-hydroxy-1-(3-imidazol-1-yl-propyl)-4-(1H-indol-3-yl)-l 5-dihydro-pyrrol-2-one] | 400 nM
7 | CC1=C(O)C(=O)N(CCCn2ccnc2)C1c1ccc(C)c(C)c1 (stereo not shown) [Compound 29, 5-(3,4-Dimethyl-phenyl)-3-hydroxy-1-(3-imidazol-1-yl-propyl)-4-methyl-1,5-dihydro-pyrrol-2-one] | 400 nM
8 | CCC1=C(O)C(=O)N(c2ccc3[nH]cnc3c2)C1c1cc(C)c(C)o1 (stereo not shown) [Compound 340, 1-(1H-Benzoimidazol-5-yl)-5-(4,5-dimethyl-furan-2-yl)-4-ethyl-3-hydroxy-1,5-dihydro-pyrrol-2-one] | 3370 nM
9 | CC(=O)C1=C(O)C(=O)N(c2ccc3[nH]cnc3c2)C1CCC(=O)O (stereo not shown) [Compound 450, 3-[3-Acetyl-1-(1H-benzoimidazol-5-yl)-4-hydroxy-5-oxo-2,5-dihydro-1H-pyrrol-2-yl]-propionic acid] | 9490 nM
10 | CC(=O)C1=C(O)C(=O)N(c2ccc3[nH]cnc3c2)C1C1COC(C)(C)O1 (stereo not shown) [Compound 295, 4-Acetyl-1-(1H-benzoimidazol-5-yl)-5-(2,2-dimethyl-[1,3]dioxolan-4-yl)-3-hydroxy-1,5-dihydro-pyrrol-2-one] | 9850 nM
11 | CC1=C(O)C(=O)N(c2ccc3[nH]cnc3c2)C1c1cccc(C)c1 (stereo not shown) [Compound 416, 1-(1H-Benzoimidazol-5-yl)-3-hydroxy-4-methyl-5-m-tolyl-1,5-dihydro-pyrrol-2-one] | 9940 nM
12 | CC(=O)C1=C(O)C(=O)N(c2ccc3[nH]cnc3c2)C1c1cc[nH]n1 (stereo not shown) [Compound 444, 4-Acetyl-1-(1H-benzoimidazol-5-yl)-3-hydroxy-5-(1H-pyrazol-3-yl)-1,5-dihydro-pyrrol-2-one] | 6880 nM
13 | O=C1C(O)=C(c2c[nH]c3ccccc23)C(c2ccc3[nH]ccc3c2)N1CCCn1ccnc1 (stereo not shown) [Compound 120, 3-Hydroxy-1-(3-imidazol-1-yl-propyl)-5-(1H-indol-5-yl)-4-(1H-indol-3-yl)-1,5-dihydro-pyrrol-2-one] | 40 nM
14 | CC1=C(O)C(=O)N(c2ccc3[nH]cnc3c2)C1c1cnc2ccccc2c1 (stereo not shown) [Compound 448, 1-(1H-Benzoimidazol-5-yl)-3-hydroxy-4-methyl-5-quinolin-3-yl-1,5-dihydro-pyrrol-2-one] | 1750 nM
15 | O=C1C(O)=C(c2ccccc2)C(CO)N1CCCn1ccnc1 (stereo not shown) [Compound 104, 3-Hydroxy-5-hydroxymethyl-1-(3-imidazol-1-yl-propyl)-4-phenyl-1,5-dihydro-pyrrol-2-one] | 40 nM
16 | O=C(C1=C(O)C(=O)N(c2ccc3[nH]cnc3c2)C1c1cccc(F)c1)C1CC1 (stereo not shown) [Compound 370, 1-(1H-Benzoimidazol-5-yl)-4-cyclopropanecarbonyl-5-(3-fluoro-phenyl)-3-hydroxy-1,5-dihydro-pyrrol-2-one] | 7690 nM
17 | O=C1C(O)=C(c2c[nH]c3ccccc23)C(c2ccccc2O)N1CCCn1ccnc1 (stereo not shown) [Compound 122, 3-Hydroxy-5-(2-hydroxy-phenyl)-1-(3-imidazol-1-yl-propyl)-4-(1H-indol-3-yl)-1,5-dihydro-pyrrol-2-one] | 40 nM
18 | O=C(C1=C(O)C(=O)N(c2ccc3[nH]cnc3c2)C1c1cccc2cccnc12)C1CC1 (stereo not shown) [Compound 443, 1-(1H-Benzoimidazol-5-yl)-4-cyclopropanecarbonyl-3-hydroxy-5-quinolin-8-yl-1,5-dihydro-pyrrol-2-one] | 4630 nM
19 | CCCCCC1=C(O)C(=O)N(CCCn2ccnc2)C1c1ccccc1O (stereo not shown) [Compound 194, 3-Hydroxy-5-(2-hydroxy-phenyl)-1-(3-imidazol-1-yl-propyl)-4-pentyl-1,5-dihydro-pyrrol-2-one] | 40 nM
20 | CC(C)C1=C(O)C(=O)N(CCCn2ccnc2)C1c1ccccc1F (stereo not shown) [Compound 74, 5-(2-Fluoro-phenyl)-3-hydroxy-1-(3-imidazol-1-yl-propyl)-4-isopropyl-1,5-dihydro-pyrrol-2-one] | 2200 nM
21 | CCCCCC1=C(O)C(=O)N(CCCn2ccnc2)C1CCCCC (stereo not shown) [Compound 196, 3-Hydroxy-1-(3-imidazol-1-yl-propyl)-4,5-dipentyl-1,5-dihydro-pyrrol-2-one] | 40 nM
22 | CC(=O)C1=C(O)C(=O)N(c2ccc3[nH]cnc3c2)C1c1ccc(O)c(Br)c1 (stereo not shown) [Compound 333, 4-Acetyl-1-(1H-benzoimidazol-5-yl)-5-(3-bromo-4-hydroxy-phenyl)-3-hydroxy-1,5-dihydro-pyrrol-2-one] | 760 nM

Row | SMILES | IC50
23 | O=C1C(O)=C(c2c[nH]c3ccccc23)C(c2cccc(Cl)c2)N1CCCn1ccnc1 (stereo not shown) [Compound 143, 5-(3-Chloro-phenyl)-3-hydroxy-1-(3-imidazol-1-yl-propyl)-4-(1H-indol-3-yl)-1,5-dihydro-pyrrol-2-one] | 40 nM
24 | CCCC(=O)C1=C(O)C(=O)N(c2ccc3[nH]cnc3c2)C1C1CCOC1 (stereo not shown) [Compound 425, 1-(1H-Benzoimidazol-5-yl)-4-butyryl-3-hydroxy-5-(tetrahydro-furan-3-yl)-1,5-dihydro-pyrrol-2-one] | 1840 nM
25 | O=C1C(O)=C(c2c[nH]c3ccccc23)C(c2cccc3cccnc23)N1c1ccc2[nH]cnc2c1 (stereo not shown) [Compound 281, 1-(1H-Benzoimidazol-5-yl)-3-hydroxy-4-(1H-indol-3-yl)-5-quinolin-8-yl-1,5-dihydro-pyrrol-2-one] | 5890 nM
26 | O=C1C(O)=C(c2ccc(O)cc2)C(c2ccccc2)N1CCCn1ccnc1 (stereo not shown) [Compound 162, 3-Hydroxy-4-(4-hydroxy-phenyl)-1-(3-imidazol-1-yl-propyl)-5-phenyl-1,5-dihydro-pyrrol-2-one] | 40 nM
27 | O=C1C(O)=C(c2ccc(O)cc2)C(c2cc[nH]n2)N1CCCn1ccnc1 (stereo not shown) [Compound 151, 3-Hydroxy-4-(4-hydroxy-phenyl)-1-(3-imidazol-1-yl-propyl)-5-(1H-pyrazol-3-yl)-1,5-dihydro-pyrrol-2-one] | 40 nM
28 | CCCCCC1=C(O)C(=O)N(CCCn2ccnc2)C1c1cccs1 (stereo not shown) [Compound 210, 3-Hydroxy-1-(3-imidazol-1-yl-propyl)-4-pentyl-5-thiophen-2-yl-1,5-dihydro-pyrrol-2-one] | 40 nM
29 | CC1=C(O)C(=O)N(CCCn2ccnc2)C1c1ccc2[nH]ccc2c1 (stereo not shown) [Compound 26, 3-Hydroxy-1-(3-imidazol-1-yl-propyl)-5-(1H-indol-5-yl)-4-methyl-1,5-dihydro-pyrrol-2-one] | 40 nM
30 | O=C1C(O)=C(c2ccc(O)cc2)C(c2ccc(CO)o2)N1CCCn1ccnc1 (stereo not shown) [Compound 161, 3-Hydroxy-5-(5-hydroxymethyl-furan-2-yl)-4-(4-hydroxy-phenyl)-1-(3-imidazol-1-yl-propyl)-1,5-dihydro-pyrrol-2-one] | 400 nM
31 | CC(C)(C)C(=O)C1=C(O)C(=O)N(c2ccc3[nH]cnc3c2)C1c1cc2ccccc2nc1Cl (stereo not shown) [Compound 392, 1-(1H-Benzoimidazol-5-yl)-5-(2-chloro-quinolin-3-yl)-4-(2,2-dimethyl-propionyl)-3-hydroxy-1,5-dihydro-pyrrol-2-one] | 4450 nM
32 | O=C1C(O)=C(c2c[nH]c3ccccc23)C(c2cc(Cl)cc(Cl)c2O)N1CCCn1ccnc1 (stereo not shown) [Compound 113, 5-(3,5-Dichloro-2-hydroxy-phenyl)-3-hydroxy-1-(3-imidazol-1-yl-propyl)-4-(1H-indol-3-yl)-1,5-dihydro-pyrrol-2-one] | 1300 nM
33 | CCCCCC1=C(O)C(=O)N(CCCn2ccnc2)C1c1ccc(C)o1 (stereo not shown) [Compound 191, 3-Hydroxy-1-(3-imidazol-1-yl-propyl)-5-(5-methyl-furan-2-yl)-4-pentyl-1,5-dihydro-pyrrol-2-one] | 40 nM
34 | CC1=C(O)C(=O)N(CCCn2ccnc2)C1c1ccc(C)o1 (stereo not shown) [Compound 25, 3-Hydroxy-1-(3-imidazol-1-yl-propyl)-4-methyl-5-(5-methyl-furan-2-yl)-1,5-dihydro-pyrrol-2-one] | 4900 nM
35 | CC1C(c2ccc(O)cc2)=C(O)C(=O)N1CCCn1ccnc1 (stereo not shown) [Compound 160, 3-Hydroxy-4-(4-hydroxy-phenyl)-1-(3-imidazol-1-yl-propyl)-5-methyl-1,5-dihydro-pyrrol-2-one] | 400 nM
36 | CC1=C(O)C(=O)N(CCCn2ccnc2)C1c1cc(Cl)cc(Cl)c1O (stereo not shown) [Compound 20, 5-(3,5-Dichloro-2-hydroxy-phenyl)-3-hydroxy-1-(3-imidazol-1-yl-propyl)-4-methyl-1,5-dihydro-pyrrol-2-one] | 400 nM
37 | COc1ccc(C2C(c3c[nH]c4ccccc34)=C(O)C(=O)N2CCCn2ccnc2)cc1 (stereo not shown) [Compound 121, 3-Hydroxy-1-(3-imidazol-1-yl-propyl)-4-(1H-indol-3-yl)-5-(4-methoxy-phenyl)-1,5-dihydro-pyrrol-2-one] | 40 nM
38 | Cc1ccc2c(C3C(c4c[nH]c5ccccc45)=C(O)C(=O)N3CCCn3ccnc3)c[nH]c2c1 (stereo not shown) [Compound 130, 3-Hydroxy-1-(3-imidazol-1-yl-propyl)-4-(1H-indol-3-yl)-5-(6-methyl-1H-indol-3-yl)-1,5-dihydro-pyrrol-2-one] | 1300 nM
39 | O=C1C(O)=C(c2ccccc2)C(c2ccc(O)cc2)N1CCCn1ccnc1 (stereo not shown) [Compound 111, 3-Hydroxy-5-(4-hydroxy-phenyl)-1-(3-imidazol-1-yl-propyl)-4-phenyl-1,5-dihydro-pyrrol-2-one] | 400 nM
40 | CCCCCC1=C(O)C(=O)N(CCCn2ccnc2)C1C(C)CC (stereo not shown) [Compound 186, 5-sec-Butyl-3-hydroxy-1-(3-imidazol-1-yl-propyl)-4-pentyl-1,5-dihydro-pyrrol-2-one] | 400 nM
